Measurements taken from patent US20240324531A1, “METHOD TO INCREASE POLLEN FERTILITY” (Keygene N.V., priority 2021, published 2024).
“Also recorded” adds a separate entry of the source.

Test system: anthers of B. rapa x B. oleracea cross (F1)
Assay: Opening of anthers after treating immature flower buds of the AC hybrid
Assay type: in vivo, Brassica rapa x Brassica oleracea interspecific hybrid
Settings: 20 nM; F1 of this cross normally does not form open anthers
Description: Alternatively or in addition, preferably in the provided first seed plant, at least about 2%, 4%, 6%, 8%, 10%, 15%, 20%, 25%, 30%, 35%, 40%, 45%, 50%, 55%, 60%, 65%, 70%, 75%, 80%, 85%, 90%, 95% or 100% of the anthers remain closed upon pollen maturation. Preferably, less than about 95%, 90%, 85%, 80%, 75%, 70%, 65%, 60%, 55%, 50%, 45%, 40%, 35%, 30%, 25%, 20%, 15%, 10%, 8%, 6%, 4%, 2% or less than about 1% of the anthers open upon pollen maturation.

NC1=NC(=O)C(=Cc2ccc(O)cc2)S1 [Mirin, 2-Amino-5-[(4-hydroxyphenyl)methylene]-4(5H)-thiazolone]
opening of anthers: open anther; also recorded: opening of anthers
